From patent EP4603105A1, “PHARMACEUTICAL COMPOSITION CONTAINING CYCLIC COMPOUND HAVING SELECTIVE KRAS INHIBITORY EFFECT AGAINST HRAS AND NRAS” (CHUGAI SEIYAKU KABUSHIKI KAISHA, priority 2022, dated 2024)
*1 amine or outer side, *2 acyl side, *3 side chain or, on linkers, in order; H or OH if unused. Where a SMILES comes first, the peptide text is derived from it. Bridges are numbered along the chain shown (N, C = ends). [ ]: non-standard residue; d: D form. The star is where a group is joined. hPhe(3,5-F2-4-CF3) = N[C@@H](CCc1cc(F)c(C(F)(F)F)c(F)c1)C(=O)O; hPhe(3-Cl-4-CF3) = N[C@@H](CCc1ccc(C(F)(F)F)c(Cl)c1)C(=O)O; NPrPhe(4-CF3) = CCCN[C@@H](Cc1ccc(C(F)(F)F)cc1)C(=O)O; NMeAbu(4,4,4-F3) = CN[C@@H](CC(F)(F)F)C(=O)O; X16 = O=C([C@@H](N[*:1])C1CC(F)(F)C1)[*:2]; NMeGly(cPent) = CN[C@H](C(=O)O)C1CCCC1; Ac4c(3,3-F2) = NC1(C(=O)O)CC(F)(F)C1; Nva(3-Et) = CCC(CC)[C@H](N)C(=O)O; X3 = CCC[C@](C)(N[*:1])C(=O)[*:2]; αMeI = CC[C@H](C)[C@](C)(N)C(=O)O; Gly(N-propargyl) = C#CCNCC(=O)O; NMeD = CN[C@@H](CC(=O)O)C(=O)O; Ac4c(3-oxa) = NC1(C(=O)O)COC1; NMeL = CN[C@@H](CC(C)C)C(=O)O; X20 = O=C(CN(CCF)[*:1])[*:2]; Iva = CC[C@](C)(N)C(=O)O; Morpholide = C1CN(*)CCO1; NAllylGly = C=CCNCC(=O)O; Ac5c = NC1(C(=O)O)CCCC1; Sar = CNCC(=O)O

Assays:
[1] = biological target: GDP-bound NRAS wild-type protein (Homo sapiens, UniProt P01111); assay: Binding to NRAS by surface plasmon resonance (SPR), KD and KD ratio to KRAS; details: ratio of the KD value with respect to GDP-bound NRAS wild-type protein to the KD value with respect to KRAS
Method in brief: (§1)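 Compound binding is evaluated by SPR single-cycle kinetics, with concentrations added intermittently from low to high for 75 s each. Target surfaces carry GDP-loaded biotinylated Avi-RAS at about 100–300 RU, regenerated after each cycle; temperature 30°C. A 1:1 binding model gives KD.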

HRAS wild-type protein = HRAS wild-type protein (Homo sapiens, UniProt P01112); assay: Binding to HRAS by surface plasmon resonance (SPR), KD and KD ratio to KRAS; details: ratio of the KD value with respect to HRAS wild-type protein to the KD value with respect to KRAS
Method in brief: as §1

[2] = system: human lung cancer strain NCI-H441; assay type: cell-based
Method in brief: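 Proliferation was scored by […] measured after the reagent was added to cultures kept at 37°C in 5% carbon dioxide.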

Sequence of HRAS wild-type protein (P01112 whole entry): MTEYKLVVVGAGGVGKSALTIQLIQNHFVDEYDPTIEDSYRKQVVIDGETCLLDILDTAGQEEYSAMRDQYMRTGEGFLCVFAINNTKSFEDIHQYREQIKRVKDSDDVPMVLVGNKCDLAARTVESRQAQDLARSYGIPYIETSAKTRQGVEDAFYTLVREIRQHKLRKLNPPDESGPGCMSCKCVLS
Sequence of GDP-bound NRAS wild-type protein (P01111 whole entry): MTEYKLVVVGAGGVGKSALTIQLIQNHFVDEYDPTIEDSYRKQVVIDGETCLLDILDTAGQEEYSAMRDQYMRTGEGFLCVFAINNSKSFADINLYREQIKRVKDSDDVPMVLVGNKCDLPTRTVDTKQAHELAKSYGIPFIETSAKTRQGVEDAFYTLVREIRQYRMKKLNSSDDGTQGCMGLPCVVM

SMILES	IC50 [2]	NRAS /KRAS [1]	HRAS /KRAS (HRAS wild-type protein)
CCCN1C(=O)CN(C)C(=O)CN(C)C(=O)[C@H]([C@@H](C)CC)NC(=O)[C@H](CC(C)C)N(C)C(=O)C[C@@H](C(=O)N(C)C)N(C)C(=O)[C@H](C2CCCC2)N(C)C(=O)C2(COC2)NC(=O)[C@@H]2CCCN2C(=O)[C@H](CCc2cc(F)c(C(F)(F)F)c(F)c2)NC(=O)CN(C)C(=O)[C@@H]1Cc1ccc(C(F)(F)F)cc1 [PP0744] ([NMeL]I[Sar][Sar][NPrPhe(4-CF3)][Sar][hPhe(3,5-F2-4-CF3)]P[Ac4c(3-oxa)][NMeGly(cPent)][NMeD]-NMe2; lactam N-11)	57 nM	B (a compound having 3 or more and less than 10 is denoted as B)	B (a compound having 3 or more and less than 10 is denoted as B)
CCCN1C(=O)CN(C)C(=O)CN(C)C(=O)[C@H]([C@@H](C)CC)NC(=O)[C@H](CC(C)C)N(C)C(=O)C[C@@H](C(=O)N(C)C)N(C)C(=O)[C@H](C2CCCC2)N(C)C(=O)C2(CC(F)(F)C2)NC(=O)[C@@H]2CCCN2C(=O)[C@H](CCc2cc(F)c(C(F)(F)F)c(F)c2)NC(=O)CN(C)C(=O)[C@@H]1Cc1ccc(C(F)(F)F)cc1 [PP0745] ([NMeL]I[Sar][Sar][NPrPhe(4-CF3)][Sar][hPhe(3,5-F2-4-CF3)]P[Ac4c(3,3-F2)][NMeGly(cPent)][NMeD]-NMe2; lactam N-11)	3.9 nM	B (a compound having 3 or more and less than 10 is denoted as B)	C (A compound having a KD ratio of 0.1 or more and less than 3 is denoted as C)
CCCN1C(=O)CN(C)C(=O)CN(C)C(=O)[C@H]([C@@H](C)CC)NC(=O)[C@H](CC(C)C)N(C)C(=O)C[C@@H](C(=O)N(C)C)N(C)C(=O)[C@H](CC(F)(F)F)N(C)C(=O)C2(CCCC2)NC(=O)[C@@H]2CCCN2C(=O)[C@H](CCc2cc(F)c(C(F)(F)F)c(F)c2)NC(=O)CN(C)C(=O)[C@@H]1Cc1ccc(C(F)(F)F)cc1 [PP0746] ([NMeL]I[Sar][Sar][NPrPhe(4-CF3)][Sar][hPhe(3,5-F2-4-CF3)]P[Ac5c][NMeAbu(4,4,4-F3)][NMeD]-NMe2; lactam N-11)	35.4 nM	B (a compound having 3 or more and less than 10 is denoted as B)	C (A compound having a KD ratio of 0.1 or more and less than 3 is denoted as C)
CCCN1C(=O)CN(C)C(=O)CN(C)C(=O)[C@H](C(CC)CC)NC(=O)[C@H](CC(C)C)N(C)C(=O)C[C@@H](C(=O)N(C)C)N(C)C(=O)[C@H](C2CCCC2)N(C)C(=O)C2(CCCC2)NC(=O)[C@@H]2CCCN2C(=O)[C@H](CCc2cc(F)c(C(F)(F)F)c(F)c2)NC(=O)CN(C)C(=O)[C@@H]1Cc1ccc(C(F)(F)F)cc1 [PP0747] ([NMeL][Nva(3-Et)][Sar][Sar][NPrPhe(4-CF3)][Sar][hPhe(3,5-F2-4-CF3)]P[Ac5c][NMeGly(cPent)][NMeD]-NMe2; lactam N-11)	45.9 nM	B (a compound having 3 or more and less than 10 is denoted as B)	C (A compound having a KD ratio of 0.1 or more and less than 3 is denoted as C)
CCCN1C(=O)CN(C)C(=O)CN(C)C(=O)[C@H](C2CC(F)(F)C2)NC(=O)[C@H](CC(C)C)N(C)C(=O)C[C@@H](C(=O)N(C)C)N(C)C(=O)[C@H](C2CCCC2)N(C)C(=O)C2(CCCC2)NC(=O)[C@@H]2CCCN2C(=O)[C@H](CCc2cc(F)c(C(F)(F)F)c(F)c2)NC(=O)CN(C)C(=O)[C@@H]1Cc1ccc(C(F)(F)F)cc1 [PP0748] ([NMeL][X16][Sar][Sar][NPrPhe(4-CF3)][Sar][hPhe(3,5-F2-4-CF3)]P[Ac5c][NMeGly(cPent)][NMeD]-NMe2; lactam N-11)	10.7 nM	B (a compound having 3 or more and less than 10 is denoted as B)	B (a compound having 3 or more and less than 10 is denoted as B)
C=CCN1CC(=O)N(C)CC(=O)N(CCC)[C@@H](Cc2ccc(C(F)(F)F)cc2)C(=O)N(C)CC(=O)N[C@@H](CCc2ccc(C(F)(F)F)c(Cl)c2)C(=O)N2CCC[C@H]2C(=O)NC2(CCCC2)C(=O)N(C)[C@@H](C2CCCC2)C(=O)N(C)[C@H](C(=O)N2CCOCC2)CC(=O)N(C)[C@@H](CC(C)C)C(=O)N[C@@H]([C@@H](C)CC)C1=O [PP0749] ([NMeL]I[NAllylGly][Sar][NPrPhe(4-CF3)][Sar][hPhe(3-Cl-4-CF3)]P[Ac5c][NMeGly(cPent)][NMeD]-Morpholide; lactam N-11)	19.8 nM	B (a compound having 3 or more and less than 10 is denoted as B)	C (A compound having a KD ratio of 0.1 or more and less than 3 is denoted as C)
C#CCN1CC(=O)N(C)CC(=O)N(CCC)[C@@H](Cc2ccc(C(F)(F)F)cc2)C(=O)N(C)CC(=O)N[C@@H](CCc2ccc(C(F)(F)F)c(Cl)c2)C(=O)N2CCC[C@H]2C(=O)NC2(CCCC2)C(=O)N(C)[C@@H](C2CCCC2)C(=O)N(C)[C@H](C(=O)N2CCOCC2)CC(=O)N(C)[C@@H](CC(C)C)C(=O)N[C@@H]([C@@H](C)CC)C1=O [PP0750] ([NMeL]I[Gly(N-propargyl)][Sar][NPrPhe(4-CF3)][Sar][hPhe(3-Cl-4-CF3)]P[Ac5c][NMeGly(cPent)][NMeD]-Morpholide; lactam N-11)	11.1 nM	B (a compound having 3 or more and less than 10 is denoted as B)	C (A compound having a KD ratio of 0.1 or more and less than 3 is denoted as C)

More lines, main results first:

IC50 [2]	SMILES	NRAS /KRAS [1]	HRAS /KRAS (HRAS wild-type protein)
25.5 nM	CCCN1C(=O)CN(C)C(=O)CN(CCF)C(=O)[C@H]([C@@H](C)CC)NC(=O)[C@H](CC(C)C)N(C)C(=O)C[C@@H](C(=O)N2CCOCC2)N(C)C(=O)[C@H](C2CCCC2)N(C)C(=O)C2(CCCC2)NC(=O)[C@@H]2CCCN2C(=O)[C@H](CCc2ccc(C(F)(F)F)c(Cl)c2)NC(=O)CN(C)C(=O)[C@@H]1Cc1ccc(C(F)(F)F)cc1 [PP0751] ([NMeL]I[X20][Sar][NPrPhe(4-CF3)][Sar][hPhe(3-Cl-4-CF3)]P[Ac5c][NMeGly(cPent)][NMeD]-Morpholide; lactam N-11)	B (a compound having 3 or more and less than 10 is denoted as B)	C (A compound having a KD ratio of 0.1 or more and less than 3 is denoted as C)
8.2 nM	CCCN1C(=O)CN(C)C(=O)CN(C)C(=O)[C@H]([C@@H](C)CC)NC(=O)[C@H](CC(C)C)N(C)C(=O)C[C@@H](C(=O)N2CCOCC2)N(C)C(=O)[C@H](C2CCCC2)N(C)C(=O)C2(CCCC2)NC(=O)[C@@H]2CCCN2C(=O)[C@H](CCc2cc(F)c(C(F)(F)F)c(F)c2)NC(=O)CN(C)C(=O)[C@@H]1Cc1ccc(C(F)(F)F)cc1 [PP0753] ([NMeL]I[Sar][Sar][NPrPhe(4-CF3)][Sar][hPhe(3,5-F2-4-CF3)]P[Ac5c][NMeGly(cPent)][NMeD]-Morpholide; lactam N-11)	B (a compound having 3 or more and less than 10 is denoted as B)	C (A compound having a KD ratio of 0.1 or more and less than 3 is denoted as C)
40.4 nM	CCCN1C(=O)CN(C)C(=O)CN(C)C(=O)[C@H]([C@@H](C)CC)NC(=O)[C@H](CC(C)C)N(C)C(=O)C[C@@H](C(=O)N2CCOCC2)N(C)C(=O)[C@H](C2CCCC2)N(C)C(=O)[C@](C)(CC)NC(=O)[C@@H]2CCCN2C(=O)[C@H](CCc2cc(F)c(C(F)(F)F)c(F)c2)NC(=O)CN(C)C(=O)[C@@H]1Cc1ccc(C(F)(F)F)cc1 [PP0754] ([NMeL]I[Sar][Sar][NPrPhe(4-CF3)][Sar][hPhe(3,5-F2-4-CF3)]P[Iva][NMeGly(cPent)][NMeD]-Morpholide; lactam N-11)	B (a compound having 3 or more and less than 10 is denoted as B)	C (A compound having a KD ratio of 0.1 or more and less than 3 is denoted as C)
480 nM	CCCN1C(=O)CN(C)C(=O)CN(C)C(=O)[C@H]([C@@H](C)CC)NC(=O)[C@H](CC(C)C)N(C)C(=O)C[C@@H](C(=O)N2CCOCC2)N(C)C(=O)[C@H](C2CCCC2)N(C)C(=O)[C@](C)([C@@H](C)CC)NC(=O)[C@@H]2CCCN2C(=O)[C@H](CCc2cc(F)c(C(F)(F)F)c(F)c2)NC(=O)CN(C)C(=O)[C@@H]1Cc1ccc(C(F)(F)F)cc1 [PP0757] ([NMeL]I[Sar][Sar][NPrPhe(4-CF3)][Sar][hPhe(3,5-F2-4-CF3)]P[αMeI][NMeGly(cPent)][NMeD]-Morpholide; lactam N-11)	B (a compound having 3 or more and less than 10 is denoted as B)	C (A compound having a KD ratio of 0.1 or more and less than 3 is denoted as C)
153 nM	CCCN1C(=O)CN(C)C(=O)CN(C)C(=O)[C@H]([C@@H](C)CC)NC(=O)[C@H](CC(C)C)N(C)C(=O)C[C@@H](C(=O)N2CCOCC2)N(C)C(=O)[C@H](C2CCCC2)N(C)C(=O)[C@](C)(CCC)NC(=O)[C@@H]2CCCN2C(=O)[C@H](CCc2cc(F)c(C(F)(F)F)c(F)c2)NC(=O)CN(C)C(=O)[C@@H]1Cc1ccc(C(F)(F)F)cc1 [PP0758] ([NMeL]I[Sar][Sar][NPrPhe(4-CF3)][Sar][hPhe(3,5-F2-4-CF3)]P[X3][NMeGly(cPent)][NMeD]-Morpholide; lactam N-11)	B (a compound having 3 or more and less than 10 is denoted as B)	C (A compound having a KD ratio of 0.1 or more and less than 3 is denoted as C)
